In patent US10617680B2 (CELGENE QUANTICEL RESEARCH, INC., priority 2017, dated 2020):

Biological target: CBP (Homo sapiens (Human), UniProt Q92793)
Experiment: In vitro CBP inhibition (AlphaScreen, biotinylated H4-tetraacetyl peptide)
Type: binding
Conditions: not given
Procedure, shortened: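 His-tagged CBP expressed in E. coli (50 nM final) incubated with biotinylated H4K5/8/12/16(Ac) peptide (20 nM final) in 50 mM HEPES pH 7.3, 10 mM NaCl, 0.25 mM TCEP, 0.1% BSA, 0.005% Brij-35, 0.4% DMSO, 20 min at room temp.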

Chain of CBP (Q92793 1081-1197): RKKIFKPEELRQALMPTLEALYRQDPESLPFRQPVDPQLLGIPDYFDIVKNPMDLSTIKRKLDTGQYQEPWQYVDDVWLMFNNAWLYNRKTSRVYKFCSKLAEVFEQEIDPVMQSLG

| Compound | IC50 [nM] |
| --- | --- |
| Cn1cc(-c2cnn(Cc3ccccc3)c2)c(-c2ccccc2Cl)cc1=O [Example 123, 5-(1-benzyl-1H-pyrazol-4-yl)-4-(2-chlorophenyl)-1-methyl-pyridin-2(1H)-one] | 500 to 5000 |

Same assay, conditions: AlphaScreen, Table 29; read-out: CBP IC50

| Compound | IC50 [nM] |
| --- | --- |
| Cn1cc(-c2cnn(-c3cccc(C4CC4)c3C#N)c2)c(-c2ccn(CCF)c(=O)c2)cc1=O [Example 389, 2-cyclopropyl-6-[4-[4-[1-(2-fluoroethyl)-2-oxo-4-pyridyl]-1-methyl-6-oxo-3-pyridyl]pyrazol-1-yl]benzonitrile] | < 500 |
| Cn1cc(-c2cnn(-c3ccccc3C#N)c2)c(-c2c[nH]c(=O)c(F)c2)cc1=O [Example 240, 2-(4-(5-fluoro-1′-methyl-6,6′-dioxo-1,1′,6,6′-tetrahydro-[3,4′-bipyridin]-3′-yl)-1H-pyrazol-1-yl)benzonitrile] | < 500 |
| Cn1cc(-c2cnn(-c3cccc(C4CC4)c3C#N)c2)c(-c2ccc(OCCF)nc2)cc1=O [Example 387, 2-cyclopropyl-6-[4-[4-[6-(2-fluoroethoxy)-3-pyridyl]-1-methyl-6-oxo-3-pyridyl]pyrazol-1-yl]benzonitrile] | < 500 |
| Cn1cc(-c2cnn(CC3CC3)c2)c(-c2ccccc2)cc1=O [Example 146, 5-(1-(cyclopropyl-methyl)-1H-pyrazol-4-yl)-1-methyl-4-phenyl-pyridin-2(1H)-one] | < 500 |
| CCOc1cc(=O)n(C)cc1-c1cn[nH]c1 [Example 69, 4-ethoxy-1-methyl-5-(1H-pyrazol-4-yl)pyridin-2(1H)-one] | < 500 |
| CNC(=O)c1ccc(-c2cc(=O)n(C)cc2-c2cnn(-c3ccccc3C#N)c2)cc1 [Example 219, 4-{5-[1-(2-Cyano-phenyl)-1H-pyrazol-4-yl]-1-methyl-2-oxo-1,2-dihydro-pyridin-4-yl}-N-methyl-benzamide] | < 500 |
| COC(=O)Cn1cc(-c2cn(C)c(=O)cc2-c2ccccc2)cn1 [Example 140, methyl 2-(4-(1-methyl-6-oxo-4-phenyl-1,6-dihydropyridin-3-yl)-1H-pyrazol-1-yl)acetate] | < 500 |
| CC(c1ccccc1)n1cc(-c2cn(C)c(=O)cc2OCc2ccccc2)cn1 (centres unmarked) [Example 56, 4-(benzyloxy)-1-methyl-5-(1-(1-phenylethyl)-1H-pyrazol-4-yl) pyridin-2(1H)-one] | < 500 |
| Cn1cc(-c2cnn(Cc3ccccc3)c2)c(-c2ccsc2)cc1=O [Example 117, 5-(1-benzyl-1H-pyrazol-4-yl)-1-methyl-4-(thiophen-3-yl) pyridin-2(1H)-one] | < 500 |
| CCNc1ncc(-c2cc(=O)n(C)cc2-c2cnn(C(C)c3ccccc3)c2)cn1 (centres unmarked) [Example 311] | < 500 |
| Cn1cc(-c2cnn(Cc3ccccc3)c2)c(-c2cnn(CC(C)(C)O)c2)cc1=O [Example 161, 5-(1-benzyl-1H-pyrazol-4-yl)-4-(1-(2-hydroxy-2-methylpropyl)-1H-pyrazol-4-yl)-1-methyl-pyridin-2(1H)-one] | < 500 |
| CCNC(=O)c1ccn(-c2cc(=O)n(C)cc2-c2cnn(Cc3ccccc3)c2)c1 [Example 81, 1-(5-(1-benzyl-1H-pyrazol-4-yl)-1-methyl-2-oxo-1,2-dihydro-pyridin-4-yl)-N-ethyl-1H-pyrrole-3-carboxamide] | < 500 |
| CC(c1ccccc1)n1cc(-c2cn(C)c(=O)cc2OC2CC2)cn1 (centres unmarked) [Example 59, 4-cyclopropoxy-1-methyl-5-(1-(1-phenylethyl)-1H-pyrazol-4-yl) pyridin-2(1H)-one] | < 500 |
| CCOc1cc(=O)n(C)cc1-c1cnn(Cc2cccc(Br)c2)c1 [Example 105, 5-(1-(3-bromo-benzyl)-1H-pyrazol-4-yl)-4-ethoxy-1-methyl-pyridin-2(1H)-one] | < 500 |
| Cn1nc(-c2cn(C)c(=O)cc2-c2ccccc2)cc1-c1ccccc1 [Example 395, 1-methyl-5-(1-methyl-5-phenyl-1H-pyrazol-3-yl)-4-phenylpyridin-2(1H)-one] | < 500 |
| Cn1cc(-c2cnn(-c3cccc(F)c3C#N)c2)c(-c2cnc(N3CCCC3)nc2)cc1=O [Example 336, 2-fluoro-6-[4-[1-methyl-6-oxo-4-(2-pyrrolidin-1-ylpyrimidin-5-yl)-3-pyridyl]pyrazol-1-yl]benzonitrile] | < 500 |
| Cn1ccc(-c2cc(=O)n(C)cc2-c2cnn(-c3ccccc3S(C)(=O)=O)c2)cc1=O [Example 284, 5-[1-(2-Methanesulfonyl-phenyl)-1H-pyrazol-4-yl]-1,1′-dimethyl-1H,1′H-[4,4′]bipyridinyl-2,2′-dione] | < 500 |
| CCOc1cc(=O)n(C)cc1-c1cn(Cc2ccccc2)nc1N [Example 186, 5-(3-amino-1-benzyl-1H-pyrazol-4-yl)-4-ethoxy-1-methylpyridin-2(1H)-one] | < 500 |
| CCNc1ncc(-c2cc(=O)n(C)cc2-c2cnn(-c3cccc(Cl)c3C#N)c2)cn1 [Example 325, 2-chloro-6-(4-(4-(2-(ethylamino)pyrimidin-5-yl)-1-methyl-6-oxo-1,6-dihydropyridin-3-yl)-1H-pyrazol-1-yl)benzonitrile] | < 500 |
| COc1ccc(-c2cc(=O)n(C)cc2-c2cnn(-c3cccc(Cl)c3C#N)c2)cn1 [Example 277, 2-Chloro-6-[4-(6-methoxy-1′-methyl-6′-oxo-1′,6′-dihydro-[3,4′]bipyridinyl-3′-yl)-pyrazol-1-yl]-benzonitrile] | < 500 |

| Compound | IC50 [nM] |
| --- | --- |
| CNC(=O)c1ccn(-c2cc(=O)n(C)cc2-c2cnn(Cc3ccccc3)c2)c1 [Example 76] | < 500 |
| Cn1cc(-c2cnn(-c3cccc(F)c3C#N)c2)c(-c2ccc(NCC3CC3)nc2)cc1=O [Example 346, 2-(4-{6-[(cyclopropylmethyl)amino]-1′-methyl-6′-oxo-1′,6′-dihydro-[3,4′-bipyridine]-3′-yl}-1H-pyrazol-1-yl)-6-fluorobenzonitrile] | < 500 |
| Cn1cc(-c2cnn(-c3ccccc3C(=O)NC#N)c2)c(-c2ccc(Cl)cc2)cc1=O [Example 291, 2-(4-(4-(4-chlorophenyl)-1-methyl-6-oxo-1,6-dihydropyridin-3-yl)-1H-pyrazol-1-yl)-N-cyanobenzamide] | < 500 |
| Cn1cc(-c2cnn(-c3ccccc3C(=O)O)c2)c(C2CC2)cc1=O [Example 211, 2-[4-(4-Cyclopropyl-1-methyl-6-oxo-1,6-dihydro-pyridin-3-yl)-pyrazol-1-yl]-benzoic acid] | < 500 |
| CCc1cc(-c2cnn(-c3ccccc3C(=O)O)c2)cn(C)c1=O [Example 257, 2-[4-(5-Ethyl-1-methyl-6-oxo-1,6-dihydro-pyridin-3-yl)-pyrazol-1-yl]-benzoic acid] | 500 to 5000 |
| Cn1cc(-c2cnn(Cc3ccccc3)c2)c(NCCC(=O)O)cc1=O [Example 201, 3-((5-(1-benzyl-1H-pyrazol-4-yl)-1-methyl-2-oxo-1,2-dihydropyridin-4-yl)amino)propanoic Acid] | < 500 |
| COc1cc(-c2cnn(C(C)c3ccccc3)c2)cn(C)c1=O (centres unmarked) [Example 32, 3-methoxy-1-methyl-5-(1-(1-phenylethyl)-1H-pyrazol-4-yl) pyridin-2(1H)-one] | 500 to 5000 |
| COc1ccc(-c2cc(=O)n(C)cc2-c2cnn(C(C)c3ccccc3)c2)cn1 (centres unmarked) [Example 308, 6-methoxy-1′-methyl-5′-(1-(1-phenylethyl)-1H-pyrazol-4-yl)-[3,4′-bipyridin]-2′(1′H)-one] | < 500 |
| CCOc1cc(=O)n(C)cc1-c1cnn(CC2CC2(F)F)c1 (centres unmarked) [Example 171, 5-[1-(2,2-Difluoro-cyclopropylmethyl)-1H-pyrazol-4-yl]-4-ethoxy-1-methyl-1H-pyridin-2-one] | < 500 |
| Cn1cc(-c2cnn(-c3cccc(C4CC4)c3C#N)c2)c(-c2ccc(OCC3CC3)nc2)cc1=O [Example 391, 2-cyclopropyl-6-(4-(6-(cyclopropylmethoxy)-1′-methyl-6′-oxo-1′,6′-dihydro-[3,4′-bipyridin]-3′-yl)-1H-pyrazol-1-yl)benzonitrile] | < 500 |
| Cn1cc(-c2cnn(-c3ccccc3C#N)c2)c(C2CC2)cc1=O [Example 207, 2-[4-(4-Cyclopropyl-1-methyl-6-oxo-1,6-dihydro-pyridin-3-yl)-pyrazol-1-yl]-benzonitrile] | < 500 |
| CCn1cc(-c2cnn(Cc3ccccc3)c2)ccc1=O [Example 10, 5-(1-benzyl-1H-pyrazol-4-yl)-1-ethylpyridin-2(1H)-one] | 500 to 5000 |
| CC(c1ccc(C#N)cc1)n1cc(-c2ccc(=O)n(C)c2)cn1 (centres unmarked) [Example 25, 4-(1-(4-(1-methyl-6-oxo-1,6-dihydropyridin-3-yl)-1H-pyrazol-1-yl)ethyl)benzonitrile] | 500 to 5000 |
| Cn1cc(-c2coc(-c3ccccc3)n2)c(-c2ccccc2)cc1=O [Example 396, 1-methyl-4-phenyl-5-(2-phenyloxazol-4-yl)pyridin-2(1H)-one] | < 500 |
| CCOc1cc(=O)n(C)cc1-c1cnn(-c2ccccc2)c1 [Example 96, 4-ethoxy-1-methyl-5-(1-phenyl-1H-pyrazol-4-yl) pyridin-2(1H)-one] | < 500 |
| CCOc1cc(=O)n(C)cc1-c1cnn2c1CN(S(C)(=O)=O)CC2 [Example 392, 4-Ethoxy-5-(5-methanesulfonyl-4,5,6,7-tetrahydro-pyrazolo[1,5-a]pyrazin-3-yl)-1-methyl-1H-pyridin-2-one] | < 500 |
| Cn1ccc(-c2cc(=O)n(C)cc2-c2cnn(-c3ccccc3F)c2)cc1=O [Example 318, 5-(1-(2-fluorophenyl)-1H-pyrazol-4-yl)-1,1′-dimethyl-[4,4′-bipyridine]-2,2′(1H,1′H)-dione] | < 500 |
| CCOc1cc(=O)n(C)cc1-c1cnn(-c2ccccc2S(C)(=O)=O)c1 [Example 180, 4-Ethoxy-5-[1-(2-methanesulfonyl-phenyl)-1H-pyrazol-4-yl]-1-methyl-1H-pyridin-2-one] | < 500 |
| Cn1cc(-c2cnn(-c3cccc(F)c3C#N)c2)c(-c2ccc(OC3CCCC3)nc2)cc1=O [Example 361] | < 500 |
| COCCNc1ncc(-c2cc(=O)n(C)cc2-c2cnn(C(C)c3ccccc3)c2)cn1 (centres unmarked) [Example 312, 4-(2-((2-methoxyethyl)amino)pyrimidin-5-yl)-1-methyl-5-(1-(1-phenylethyl)-1H-pyrazol-4-yl)pyridin-2(1H)-one] | < 500 |
